# Patent US8609660B2, “4,7-dihydro-pyrazolo[1,5-a]pyrazin-6-ylamine derivatives useful as inhibitors of beta-secretase (BACE)” (Janssen Pharmaceutica NV, priority 2010, dated 2013)
# Experiments:
# [1] = system: Aβ42 produced and secreted into the medium of human neuroblastoma SKNBE2 cells; assay: Cellular αlisa assay in SKNBE2 cells, Aβ42; assay type: cell-based; details: SKNBE2 cells expressing hAPP695, 18 hours incubation; for IC50: Homo sapiens, SKNBE2, 18 h, read-out: Cellular αlisa assay in SKNBE2 cells Aβ42 pIC50 (converted)
# Method: (§1) Cellular αlisa Assay in SKNBE2 Cells In two αlisa assays the levels of Aβtotal and Aβ42 produced and secreted into the medium of human neuroblastoma SKNBE2 cells are quantified. The assay is based on the human neuroblastoma SKNBE2 expressing the wild type Amyloid Precursor Protein (hAPP695). […] Aβtotal and Aβ42 are measured by sandwich α[…] sandwich assay using biotinylated antibody AbN/25 attached to streptavidin coated beads and antibody Ab4G8 or cAb42/26 conjugated acceptor beads for the detection of Aβtotal and Aβ42 respectively. In the presence of Aβtotal or Aβ42, the beads come into close proximity. The excitation of the Donor beads provokes the release of singlet oxygen molecules that triggers a cascade of energy transfer in the Acceptor beads, resulting in light emission. Light emission is measured after 1 hour incubation (excitation at […] and emission at 615 nm). A best-fit curve is fitted by a minimum sum of squares method to the plot of % Controlmin versus compound concentration. […] [formula]
# [2] = system: Aβtotal produced and secreted into the medium of human neuroblastoma SKNBE2 cells; assay: Cellular αlisa assay in SKNBE2 cells, Aβtotal; assay type: cell-based; details: SKNBE2 cells expressing hAPP695, 18 hours incubation; for IC50: Homo sapiens, SKNBE2, 18 h, read-out: Cellular αlisa assay in SKNBE2 cells Aβtotal pIC50 (converted)
# Method: as §1
# [3] = biological target: T1, recombinant BACE1 protein (Homo sapiens, UniProt P56817); assay: Biochemical FRET based assay; details: recombinant BACE1 1 μg/ml, 120 min, room temperature, pH 5.0; for IC50: read-out: Biochemical FRET based assay pIC50 (converted)
# T1 construct: recombinant BACE1 protein in a final concentration of 1 μg/ml
# Source text: Biochemical FRET Based Assay This assay is a Fluorescence Resonance Energy Transfer Assay (FRET) based assay. The substrate for this assay is an APP derived 13 amino acids peptide that contains the 'Swedish' […] mutation of the amyloid precursor protein (APP) β-secretase cleavage site. […] Upon cleavage by BACE1, the fluorophore Mca is separated from the quenching group Dnp, restoring the full fluorescence yield of the donor. The increase in fluorescence is linearly related to the rate of proteolysis (Koike H et al. J Biochem. 1999, 126, 235-42). Briefly in a 384-well format recombinant BACE1 protein in a final concentration of 1 μg/ml is incubated for 120 minutes at room temperature with 10 μm substrate in incubation buffer (40 mM Citrate buffer pH 5.0, 0.04% PEG, 4% DMSO) in the absence or presence of compound. Next the amount of proteolysis is directly measured by fluorescence measurement at T=0 and T=120 (excitation at 320 nm and emission at 405 nm). […] [formula]
# T1 sequence (P56817 46-501): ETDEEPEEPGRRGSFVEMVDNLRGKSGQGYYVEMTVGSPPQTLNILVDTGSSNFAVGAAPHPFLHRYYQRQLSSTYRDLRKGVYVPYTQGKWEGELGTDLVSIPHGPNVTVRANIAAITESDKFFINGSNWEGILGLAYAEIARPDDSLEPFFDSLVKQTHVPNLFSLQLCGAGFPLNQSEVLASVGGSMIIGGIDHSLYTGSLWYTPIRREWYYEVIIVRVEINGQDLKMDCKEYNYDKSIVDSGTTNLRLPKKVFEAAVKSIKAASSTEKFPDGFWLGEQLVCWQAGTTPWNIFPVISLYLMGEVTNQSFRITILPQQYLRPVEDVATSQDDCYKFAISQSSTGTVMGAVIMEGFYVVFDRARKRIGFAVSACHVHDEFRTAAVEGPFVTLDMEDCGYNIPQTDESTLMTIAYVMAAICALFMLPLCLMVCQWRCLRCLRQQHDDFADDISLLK
compound,measurement,setting,value
COc1cncc(-c2cccc(C3(C)N=C(N)Cn4nccc43)c2)c1 (stereo not shown) [Compound 9],Cellular αlisa assay in SKNBE2 cells Aβ42 pIC50,[1],6.93
same,Cellular αlisa assay in SKNBE2 cells Aβtotal pIC50,[2],6.94
same,Biochemical FRET based assay pIC50,[3],6.05
COc1cnc(C(=O)Nc2ccc(F)c(C3(C)N=C(N)Cn4nc(C(F)(F)F)cc43)c2)cn1 (racemic) [Compound 30],Cellular αlisa assay in SKNBE2 cells Aβ42 pIC50,[1],6.8
same,Cellular αlisa assay in SKNBE2 cells Aβtotal pIC50,[2],6.78
same,Biochemical FRET based assay pIC50,[3],6.68
CC1(c2cc(NC(=O)c3ccc(Cl)cn3)ccc2F)N=C(N)Cn2nccc21 (racemic) [Compound 13],Cellular αlisa assay in SKNBE2 cells Aβ42 pIC50,[1],7.72
same,Cellular αlisa assay in SKNBE2 cells Aβtotal pIC50,[2],7.73
same,Biochemical FRET based assay pIC50,[3],6.84
"COc1cncc(-c2cccc(C3(C)N=C(N)Cn4nc(C(F)(F)F)cc43)c2)c1 (stereo not drawn) [Compound 21, rac-4-[3-(5-methoxypyridin-3-yl)-phenyl]-4-methyl-2-(trifluoromethyl)-4,7-dihydropyrazolo[1,5-a]pyrazin-6-amine]",IC50,[1],0.407 µM
same,IC50,[2],0.398 µM
same,IC50,[3],1.07 µM
"CC1(c2cc(-c3cncc(Cl)c3)ccc2F)N=C(N)Cn2nc(C(F)(F)F)cc21 (single isomer, unassigned) [Compound 25, (R*)-4-[5-(5-chloropyridin-3-yl)-2-fluorophenyl]-4-methyl-2-(trifluoromethyl)-4,7-dihydropyrazolo[1,5-a]pyrazin-6-amine]",Cellular αlisa assay in SKNBE2 cells Aβ42 pIC50,[1],5.5
same,Cellular αlisa assay in SKNBE2 cells Aβtotal pIC50,[2],5.64
same,IC50,[3],3.63 µM
"COc1cncc(-c2cccc(C3(C)N=C(N)Cn4nc(C(F)(F)F)cc43)c2)c1 (single isomer, unassigned) [Compound 22, (R*)-4-[3-(5-methoxypyridin-3-yl)-phenyl]-4-methyl-2-(trifluoromethyl)-4,7-dihydropyrazolo[1,5-a]pyrazin-6-amine]",Cellular αlisa assay in SKNBE2 cells Aβ42 pIC50,[1],6.13
same,Cellular αlisa assay in SKNBE2 cells Aβtotal pIC50,[2],6.18
same,IC50,[3],0.603 µM
CC1(c2cc(-c3cc(Cl)cc(Cl)c3)ccc2F)N=C(N)Cn2nccc21 (racemic) [Compound 15],Cellular αlisa assay in SKNBE2 cells Aβ42 pIC50,[1],5.48
same,Cellular αlisa assay in SKNBE2 cells Aβtotal pIC50,[2],5.52
same,Biochemical FRET based assay pIC50,[3],5.68
COc1cncc(-c2cc(C3(C)N=C(N)Cn4nccc43)c(F)cc2F)c1 (racemic) [Compound 5],Cellular αlisa assay in SKNBE2 cells Aβ42 pIC50,[1],6.4
same,Cellular αlisa assay in SKNBE2 cells Aβtotal pIC50,[2],6.41
same,Biochemical FRET based assay pIC50,[3],5.49
COc1cccc(-c2cc(C3(C)N=C(N)Cn4nccc43)c(F)cc2F)c1 (racemic) [Compound 6],Cellular αlisa assay in SKNBE2 cells Aβ42 pIC50,[1],6.06
same,Cellular αlisa assay in SKNBE2 cells Aβtotal pIC50,[2],6.13
same,Biochemical FRET based assay pIC50,[3],5.53
"COc1cnc(C(=O)Nc2ccc(F)c(C3(C)N=C(N)Cn4nc(C(F)(F)F)cc43)c2)cn1 (single isomer, unassigned) [Compound 32]",Cellular αlisa assay in SKNBE2 cells Aβ42 pIC50,[1],6.56
same,Cellular αlisa assay in SKNBE2 cells Aβtotal pIC50,[2],6.54
same,Biochemical FRET based assay pIC50,[3],<4.52
CC1(c2cc(-c3ccccc3)c(F)cc2F)N=C(N)Cn2nccc21 (racemic) [Compound 12],Cellular αlisa assay in SKNBE2 cells Aβ42 pIC50,[1],5.58
same,Cellular αlisa assay in SKNBE2 cells Aβtotal pIC50,[2],5.67
same,Biochemical FRET based assay pIC50,[3],4.88
"CC1(c2cc(NC(=O)c3ncc(Cl)cc3Cl)ccc2F)N=C(N)Cn2nc(C(F)(F)F)cc21 (single isomer, unassigned) [Compound 28, (R*)—N-{3-[6-amino-4-methyl-2-(trifluoromethyl)-4,7-dihydropyrazolo[1,5-a]pyrazin-4-yl]-4-fluorophenyl}-3,5-dichloropyridine-2-carboxamide]",Cellular αlisa assay in SKNBE2 cells Aβ42 pIC50,[1],6.99
same,Cellular αlisa assay in SKNBE2 cells Aβtotal pIC50,[2],7.1
same,IC50,[3],0.0912 µM
CC1(c2cc(-c3cccc(C#N)c3)c(F)cc2F)N=C(N)Cn2nccc21 (racemic) [Compound 18],Cellular αlisa assay in SKNBE2 cells Aβ42 pIC50,[1],5.76
same,Cellular αlisa assay in SKNBE2 cells Aβtotal pIC50,[2],5.67
same,Biochemical FRET based assay pIC50,[3],4.75
CC1(c2cccc(-c3cncnc3)c2)N=C(N)Cn2nccc21 (stereo not shown) [Compound 8],Cellular αlisa assay in SKNBE2 cells Aβ42 pIC50,[1],6.61
same,Cellular αlisa assay in SKNBE2 cells Aβtotal pIC50,[2],6.54
same,Biochemical FRET based assay pIC50,[3],5.65
"CC1(c2cc(NC(=O)c3ncc(Cl)cc3Cl)ccc2F)N=C(N)Cn2nc(C(F)(F)F)cc21 (single isomer, unassigned) [Compound 29, (S*)—N-{3-[6-amino-4-methyl-2-(trifluoromethyl)-4,7-dihydropyrazolo[1,5-a]pyrazin-4-yl]-4-fluorophenyl}-3,5-dichloropyridine-2-carboxamide]",Cellular αlisa assay in SKNBE2 cells Aβ42 pIC50,[1],<5
same,Cellular αlisa assay in SKNBE2 cells Aβtotal pIC50,[2],<5
same,IC50,[3],15.5 µM
CC1(c2cccc(-c3cc(F)cc(F)c3)c2)N=C(N)Cn2nccc21 (stereo not shown) [Compound 14],Cellular αlisa assay in SKNBE2 cells Aβ42 pIC50,[1],6.09
same,Cellular αlisa assay in SKNBE2 cells Aβtotal pIC50,[2],6.11
same,Biochemical FRET based assay pIC50,[3],6.11
"COc1cncc(-c2cccc(C3(C)N=C(N)Cn4nc(C(F)(F)F)cc43)c2)c1 (single isomer, unassigned) [Compound 23, (S*)-4-[3-(5-methoxypyridin-3-yl)-phenyl]-4-methyl-2-(trifluoromethyl)-4,7-dihydropyrazolo[1,5-a]pyrazin-6-amine]",Cellular αlisa assay in SKNBE2 cells Aβ42 pIC50,[1],<5
same,Cellular αlisa assay in SKNBE2 cells Aβtotal pIC50,[2],<5
same,IC50,[3],> 30.2 µM
COc1cnc(C(=O)Nc2ccc(F)c(C3(C4CC4)N=C(N)Cn4nccc43)c2)cn1 (stereo not shown) [Compound 34],Cellular αlisa assay in SKNBE2 cells Aβ42 pIC50,[1],7.11
same,Cellular αlisa assay in SKNBE2 cells Aβtotal pIC50,[2],7.19
same,Biochemical FRET based assay pIC50,[3],6.51
"CC1(c2cccc(NC(=O)c3ccc(Cl)cn3)c2)N=C(N)Cn2nccc21 (racemic) [Compound 3, rac-N-[3-(6-amino-4-methyl-4,7-dihydropyrazolo[1,5-a]pyrazin-4-yl)-phenyl]-5-chloropyridine-2-carboxamide]",IC50,[1],0.0107 µM
same,IC50,[2],0.0117 µM
CC1(c2cccc(-c3cccc(OC(F)(F)F)c3)c2)N=C(N)Cn2nccc21 (stereo not shown) [Compound 19],Cellular αlisa assay in SKNBE2 cells Aβ42 pIC50,[1],5.81
same,Cellular αlisa assay in SKNBE2 cells Aβtotal pIC50,[2],5.91
same,Biochemical FRET based assay pIC50,[3],5.77
"COc1cnc(C(=O)Nc2ccc(F)c(C3(C)N=C(N)Cn4nc(C(F)(F)F)cc43)c2)cn1 (single isomer, unassigned) [Compound 31]",Cellular αlisa assay in SKNBE2 cells Aβ42 pIC50,[1],6.92
same,Cellular αlisa assay in SKNBE2 cells Aβtotal pIC50,[2],6.99
same,Biochemical FRET based assay pIC50,[3],6.73
CC1(c2cccc(NC(=O)c3ccc(Cl)cn3)c2)N=C(N)Cn2nccc21 (stereo not shown) [Compound 17],Cellular αlisa assay in SKNBE2 cells Aβ42 pIC50,[1],8.09
same,Cellular αlisa assay in SKNBE2 cells Aβtotal pIC50,[2],8.08
"CC1(c2cc(NC(=O)c3ncc(Cl)cc3Cl)ccc2F)N=C(N)Cn2nc(C(F)(F)F)cc21 (stereo not drawn) [Compound 27, rac-N-{3-[6-amino-4-methyl-2-(trifluoromethyl)-4,7-dihydropyrazolo[1,5-a]pyrazin-4-yl]-4-fluorophenyl}-3,5-dichloropyridine-2-carboxamide]",IC50,[1],0.17 µM
same,IC50,[2],0.17 µM
same,IC50,[3],0.145 µM
"CC1(c2cccc(-c3cncnc3)c2)N=C(N)Cn2nccc21 (racemic) [Compound 1, rac-4-methyl-4-(3-pyrimidin-5-ylphenyl)-4,7-dihydropyrazolo[1,5-a]pyrazin-6-amine]",IC50,[1],0.457 µM
same,IC50,[2],0.355 µM
same,IC50,[3],3.31 µM
